These results are taken from patent US7109193B2, “Tricyclic diazepines tocolytic oxytocin receptor antagonists” (Wyeth, priority 2001, dated 2006).

Structures are written as SMILES.

The target in this experiment is T1, human vasopressin V2 receptor subtype (Homo sapiens, UniProt P30518).
T1 construct: host or cells: CHO cells (pZeoSV vector)
The experiment is described as follows: Vasopressin binding in Chinese Hamster Ovary cell membranes expressing human vasopressin V2 subtype receptors. The settings on record: 100 nM, CHO cell membranes, [3H]arginine vasopressin, values without parentheses. In a few lines:
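Radioligand displacement on membranes from CHO cells stably expressing human V2 receptor, 25 to 50 μg protein/well, in 50 mM Tris-HCl pH 7.4 with MgCl2, BSA and protease inhibitors. [^3H]arginine vasopressin (8 nM working solution) incubated 60 min at room temperature; bound label measured by filtration and scintillation counting.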

The term inhibition denotes the percentage by which the read-out fell short of the control.

T1 sequence (P30518 whole entry): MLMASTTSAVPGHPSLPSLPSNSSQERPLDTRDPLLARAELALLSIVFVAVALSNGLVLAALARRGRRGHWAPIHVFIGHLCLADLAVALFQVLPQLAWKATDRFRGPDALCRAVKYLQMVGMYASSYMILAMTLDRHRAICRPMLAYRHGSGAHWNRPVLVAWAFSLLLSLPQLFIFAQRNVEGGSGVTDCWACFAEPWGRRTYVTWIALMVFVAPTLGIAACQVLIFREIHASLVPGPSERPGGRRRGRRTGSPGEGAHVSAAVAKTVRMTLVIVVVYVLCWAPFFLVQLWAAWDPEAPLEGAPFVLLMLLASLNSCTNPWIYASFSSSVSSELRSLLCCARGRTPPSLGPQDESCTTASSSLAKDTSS

For the compound `Cc1ccccc1-c1ccc(C(=O)N2Cc3ccc(C(=O)NCCCn4ccnc4)n3Cc3ccccc32)cc1` [Example 127, N-[3-(1H-Imidazol-1-yl)propyl]-10-[(2′-methyl[1,1′-biphenyl]-4-yl)carbonyl]-10,11-dihydro-5H-pyrrolo[2,1-c][1,4]benzodiazepine-3-carboxamide], the inhibition at 0.1 µM worked out at 3%.
